The target of the experiment is T1, PASK (Invitrogen) (Homo sapiens, UniProt Q96RG2).
T1 construct: IC50 Kinase Domain; purchased Invitrogen
Nature of the experiment: PAS Kinase FRET Assay. The class given is biochemical. As to conditions: PAS kinase TR-FRET assay (665 nm/615 nm), 2 hours at 25° C.; read-out: IC50 Kinase Domain. The text has this:
Biochemical Assay for hPASK Activity
The aim of the FRET assay is to determine the inhibition potential of test compounds on targeted kinase. This assay platform provides a homogenous screening method for measuring kinase activity by quantitating the amount of phospho-substrate in solution following a kinase reaction.
In the presence of kinase and ATP, the Ulight-peptide is phosphorylated and captured by an anti-phospho-substrate antibody, which brings the Eu chelate donor and Ulight acceptor dyes into close proximity.
Titration of kinase at 1 mM ATP was achieved via the following protocol. […] The contents of the plate were incubated at RT for 1 h. The reaction was stopped by adding 5 μl of stop solution to each test well followed by mixing and incubation at RT for 10 minutes. 5 μl of detection mix (detection antibody diluted in detection buffer) was added; the contents of the plate were mixed and then incubated in the dark for 1 hour at RT. […] The results were graphed to calculate the EC50.
Titration of ATP at the EC50 concentration of kinase to determine ATP Km,app. was performed using the following method. […] The contents of the plate were and incubated at RT for 1 h. The reaction was stopped by adding 5 μl of stop solution to each test well followed by mixing and incubation at RT for 10 minutes. […] (detection antibody diluted in detection buffer) was added; the contents of the plate were mixed and then incubated in the dark for 1 hour at RT. […] The results were graphed to calculate the EC50 as the ATP Km,app.
Compound screening was done via the following method. 10 mM stock solution of test compound in DMSO was prepared by dissolving test compound in DMSO at RT for 1 hour, and then sonicating at 100% output for 8 minutes. If compound is not soluble under this condition, it was diluted to 3 mM. Kinase reaction buffer was prepared containing 10 mM MgCl2, 50 mM HEPES, 1 mM EGTA, 0.01% TWEEN-20, 2 mM DTT. […] As a positive control, 2.5 μl of positive compound was added to assay wells, and 2.5 μl of DMSO to assay wells as vehicle control. Kinase solution was prepared in reaction buffer at 2× final assay concentration. Kinase solution (5 μl) was added to each well of the assay plate. The substrate and ATP solution was prepared in kinase reaction buffer at 4× final assay concentration. The kinase reaction was started by adding 2.5 μl of substrate+ATP mix solution to each well of the assay plate. The plate is mixed on a plate shaker; then covered and allowed to react for 2 hours in the dark at 25° C. without shaking. The reaction was stopped by adding 5 μl of stop solution to each test well followed by mixing and incubation at RT for 10 minutes in the dark. 5 μl of detection mix (detection antibody diluted in detection buffer) was added; the contents of the plate were mixed and then incubated in the dark for 1 hour at RT.
For orientation: TR-FRET usually uses a lanthanide donor and a delayed reading to cut background.

Each structure is given as a SMILES string.

T1 sequence (Q96RG2 999-1251 limits assumed): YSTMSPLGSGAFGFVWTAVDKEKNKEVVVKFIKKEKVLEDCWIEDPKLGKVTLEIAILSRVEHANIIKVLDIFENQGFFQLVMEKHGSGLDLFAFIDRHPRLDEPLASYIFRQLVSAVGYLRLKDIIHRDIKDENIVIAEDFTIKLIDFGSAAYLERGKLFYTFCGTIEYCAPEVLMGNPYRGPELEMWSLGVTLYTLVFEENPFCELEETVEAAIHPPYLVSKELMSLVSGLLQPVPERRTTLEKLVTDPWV

As a reminder, the IC50 is the point on the concentration scale where inhibition reaches its midpoint. As for `C[C@H]1CCCN1c1nc2cc(C(=O)O)ccc2nc1-c1ccc2[nH]nnc2c1` [Example 96, (S)-2-(1H-Benzo[d][1,2,3]triazol-5-yl)-3-(2-methylpyrrolidin-1-yl)quinoxaline-6-carboxylic acid], the IC50 was less than 10 µM.
In the case of `CN(Cc1ccccc1)c1nc2cc(C(=O)O)ccc2nc1-c1ccc(F)cc1` [Example 133, 3-[Benzyl(methyl)amino]-2-(4-fluorophenyl)quinoxaline-6-carboxylic acid], the IC50 is less than 10 µM.
`O=C(O)c1ccc2nc(-c3ccc(F)cc3)c(N3CCC(c4ccccn4)CC3)nc2c1` [Example 131, 2-(4-Fluorophenyl)-3-[4-(pyridin-2-yl)piperidin-1-yl]quinoxaline-6-carboxylic acid]: the IC50 was less than 10 µM.
As to `COc1ccc2[nH]c(-c3nc4ccc(C(=O)O)cc4nc3N(C)C(C)C)cc2c1` [Example 6, 3-(Isopropyl(methyl)amino)-2-(5-methoxy-1H-indol-2-yl)quinoxaline-6-carboxylic acid], the IC50 was less than 10 µM.
For the molecule `CC(C)N(C)c1nc2cc(C(=O)O)ccc2nc1-c1nc2ccccc2s1` [Example 58, 2-(1,3-Benzothiazol-2-yl)-3-[methyl(propan-2-yl)amino]quinoxaline-6-carboxylic acid], the half-maximal inhibitory concentration (IC50) is less than 10 µM.
Take `CC(C)N(C)c1nc2cc(C(=O)O)ccc2nc1-c1cncc(Br)c1` [Example 7, 2-(5-Bromopyridin-3-yl)-3-(isopropyl(methyl)amino)quinoxaline-6-carboxylic acid]: the IC50 is less than 10 µM.
Regarding `CC(C)N(C)c1nc2cc(C(=O)O)ccc2nc1-c1ccc2c(c1)OC(F)(F)O2` [Example 42, 2-(2,2-Difluorobenzo[d][1,3]dioxol-5-yl)-3-(isopropyl(methyl)amino)quinoxaline-6-carboxylic acid], the IC50 was less than 10 µM.
As for `CC(C)N(C)c1nc2cc(C(=O)O)ccc2nc1-c1ccc2c(c1)nnn2C` [Example 95, 3-(Isopropyl(methyl)amino)-2-(1-methyl-1H-benzo[d][1,2,3]triazol-5-yl)quinoxaline-6-carboxylic acid], the IC50 was more than 10 µM.
Consider `CC(C)Nc1nc2cc(C(=O)O)ccc2nc1-c1cc2ccccc2o1` [Example 70, 2-(1-Benzofuran-2-yl)-3-[(propan-2-yl)amino]quinoxaline-6-carboxylic acid], for which the IC50 was less than 10 µM.
On to `CC(C)N(C)c1nc2cc(C(=O)O)ccc2nc1-c1cc2cc(F)ccc2s1` [Example 24, 2-(5-Fluorobenzo[b]thiophen-2-yl)-3-(isopropyl(methyl)amino)quinoxaline-6-carboxylic acid], for which the IC50 is less than 10 µM.
Turning to `CN(CC(F)(F)F)c1nc2cc(C(=O)O)ccc2nc1-c1ccc(F)cc1` [Example 124, 2-(4-Fluorophenyl)-3-[methyl(2,2,2-trifluoroethyl)amino]quinoxaline-6-carboxylic acid], the IC50 is less than 10 µM.
With `O=C(O)c1ccc2nc(-c3ccc(F)cc3)c(N3CCC3)nc2c1` [Example 145, 3-(Azetidin-1-yl)-2-(4-fluorophenyl)quinoxaline-6-carboxylic acid], the IC50 was less than 10 µM.
Consider `CC(C)N(C)c1nc2cc(C(=O)O)ccc2nc1-c1c[nH]nc1C(F)(F)F` [Example 9, 3-(Isopropyl(methyl)amino)-2-(3-(trifluoromethyl)-1H-pyrazol-4-yl)quinoxaline-6-carboxylic acid], for which the half-inhibitory concentration (IC50) is less than 10 µM.
Regarding `O=C(O)c1ccc2nc(-c3cc4cc(F)ccc4o3)c(N3CCCCCC3)nc2c1` [Example 39, 3-(Azepan-1-yl)-2-(5-fluorobenzofuran-2-yl)quinoxaline-6-carboxylic acid], the IC50 was less than 10 µM.
`C[C@H]1CCCN1c1nc2cc(C(=O)O)ccc2nc1-c1cc2ccc(F)cc2o1` [Example 32, (S)-2-(6-Fluorobenzofuran-2-yl)-3-(2-methylpyrrolidin-1-yl)quinoxaline-6-carboxylic acid]: the IC50 is less than 10 µM.
Consider `COc1cc2nc(-c3ccc(F)cc3)c(N(C)C(C)C)nc2cc1C(=O)O` [Example 122, 2-(4-Fluorophenyl)-7-methoxy-3-[methyl(propan-2-yl)amino]quinoxaline-6-carboxylic acid], for which the half-maximal inhibitory concentration (IC50) was more than 10 µM.
For `CC(C)CN(C)c1nc2cc(C(=O)O)ccc2nc1-c1ccc(F)cc1` [Example 141, 2-(4-Fluorophenyl)-3-(isobutyl(methyl)amino)quinoxaline-6-carboxylic acid], the IC50 is less than 10 µM.
For the molecule `C[C@@H](c1ccccc1)N(C)c1nc2cc(C(=O)O)ccc2nc1-c1ccc2[nH]ncc2c1` [Example 98, (S)-2-(1H-Indazol-5-yl)-3-(methyl(1-phenylethyl)amino)quinoxaline-6-carboxylic acid], the concentration for half-maximal inhibition (IC50) was less than 10 µM.
For `CN(c1nc2cc(C(=O)O)ccc2nc1-c1ccc(F)cc1)C1CCOCC1` [Example 102, 2-(4-Fluorophenyl)-3-(methyl(tetrahydro-2H-pyran-4-yl)amino)quinoxaline-6-carboxylic acid], the IC50 was less than 10 µM.
Consider `CC(C)N(C)c1nc2cc(C(=O)O)ccc2nc1-c1cc2cc(F)c(F)cc2o1` [Example 33, 2-(5,6-Difluorobenzofuran-2-yl)-3-(isopropyl(methyl)amino)quinoxaline-6-carboxylic acid], for which the IC50 was less than 10 µM.
Take `O=C(O)c1ccc2nc(-c3ccc4[nH]ncc4c3)c(N3CCCCCC3)nc2c1` [Example 36, 3-(Azepan-1-yl)-2-(1H-indazol-5-yl)quinoxaline-6-carboxylic acid]: the IC50 is less than 10 µM.
In the case of `Cc1ccccc1N(C)c1nc2cc(C(=O)O)ccc2nc1-c1ccc(F)cc1` [Example 109, 2-(4-Fluorophenyl)-3-(methyl(o-tolyl)amino)quinoxaline-6-carboxylic acid], the IC50 was less than 10 µM.
`O=C(O)c1ccc2nc(-c3cc4ccccc4s3)c(N3CCCCC3)nc2c1` [Example 53, 2-(Benzo[b]thiophen-2-yl)-3-(piperidin-1-yl)quinoxaline-6-carboxylic acid]: the IC50 is less than 10 µM.
As to `CCN(CC)c1nc2cc(C(=O)O)ccc2nc1-c1ccc2[nH]ccc2c1` [Example 38, 3-(Diethylamino)-2-(1H-indol-5-yl)quinoxaline-6-carboxylic acid], the 50% inhibitory concentration (IC50) was less than 10 µM.
Under `CCC1CCCCN1c1nc2cc(C(=O)O)ccc2nc1-c1ccc(F)cc1` (centres unmarked) [Example 142, 3-(2-Ethylpiperidin-1-yl)-2-(4-fluorophenyl)quinoxaline-6-carboxylic acid] stands less than 10 µM; under `C[C@H]1CCCN1c1nc2cc(C(=O)O)ccc2nc1-c1ccc2[nH]ncc2c1` [Example 47, 2-(1H-Indazol-5-yl)-3-[(2S)-2-methylpyrrolidin-1-yl]quinoxaline-6-carboxylic acid], less than 10 µM.
Under `C[C@H]1CN(c2ccccn2)CCN1c1nc2cc(C(=O)O)ccc2nc1-c1ccc2[nH]ncc2c1` [Example 92, (S)-2-(1H-indazol-5-yl)-3-(2-methyl-4-(pyridin-2-yl)piperazin-1-yl)quinoxaline-6-carboxylic acid] stands less than 10 µM; under `C[C@@H](c1ccccc1)N(C)c1nc2cc(C(=O)O)ccc2nc1-c1ccc(F)cc1` [Example 143, (S)-2-(4-Fluorophenyl)-3-(methyl(1-phenylethyl)amino)quinoxaline-6-carboxylic acid], less than 10 µM; under `CCn1ncc2cc(-c3nc4ccc(C(=O)O)cc4nc3N(C)C(C)C)ccc21` [Example 26, 2-(1-Ethyl-1H-indazol-5-yl)-3-(isopropyl(methyl)amino)quinoxaline-6-carboxylic acid], less than 10 µM.
For `CC(C)N(C)c1nc2cc(C(=O)O)ccc2nc1-c1ccn[nH]1` [Example 43, 3-(Isopropyl(methyl)amino)-2-(1H-pyrazol-5-yl)quinoxaline-6-carboxylic acid], the concentration for half-maximal inhibition (IC50) was less than 10 µM.
With `C[C@H]1CCCN1c1nc2cc(C(=O)O)ccc2nc1-c1ccc2[nH]ccc2c1` [Example 40, (S)-2-(1H-Indol-5-yl)-3-(2-methylpyrrolidin-1-yl)quinoxaline-6-carboxylic acid] the figure was less than 10 µM; with `CS(=O)(=O)N1CCN(c2nc3cc(C(=O)O)ccc3nc2-c2ccc(F)cc2)CC1` [Example 130, 2-(4-Fluorophenyl)-3-(4-(methylsulfonyl)piperazin-1-yl)quinoxaline-6-carboxylic acid], less than 10 µM.

The values above are taken from patent publication US8912188B2, “Substituted quinoxaline carboxylic acids for the inhibition of PASK” (BioEnergenix, LLC, priority 2011, dated 2014).
